Measured values taken from patent publication US20200113852A1, “METHODS OF PATIENT SELECTION AND TREATING TRXR- OR PRDX-OVEREXPRESSED CANCERS” (TRIACT THERAPEUTICS, INC., priority 2017, published 2020).

Experiments:
[1] = test system: Trx, JNK, p38MAPK, PARP in HCT116 cells; experiment: Cell death signaling western blots (Trx oxidation, phospho-JNK, phospho-p38MAPK, cleaved-PARP)
Experimental: (§2) Cells extracts were analyzed by SDS-PAGE either under reducing conditions or under non-reducing conditions in the case of Trx blot followed by blots anti-phospho-JNK, anti-phospho-p38MAPK, anti-cleaved-PARP and anti-Trx. Results are representative of three independent experiments.
(§3) After 2 h at 4° C., lysates were clarified by centrifugation and protein amounts were measured using the BCA assay (Pierce, Thermo scientific).
(§4) Equal amounts of proteins were resolved by SDS-PAGE under either non-reducing or reducing (5% 2-mercaptoethanol, 20 min at 60° C.) conditions, using 4-20% gels (Novex, Invitrogen), then subjected to semi-dry electrophoretic transfer onto nitrocellulose membranes.

[2] = target: T1, human recombinant glutathione S-transferase pi (GSTP1) (Homo sapiens, UniProt P09211); experiment: In vitro Iniparib-glutathione conjugation; type: biochemical; conditions: 30 μM, 1 mM GSH
T1 construct: purchased Acris
T1 sequence (P09211 whole entry): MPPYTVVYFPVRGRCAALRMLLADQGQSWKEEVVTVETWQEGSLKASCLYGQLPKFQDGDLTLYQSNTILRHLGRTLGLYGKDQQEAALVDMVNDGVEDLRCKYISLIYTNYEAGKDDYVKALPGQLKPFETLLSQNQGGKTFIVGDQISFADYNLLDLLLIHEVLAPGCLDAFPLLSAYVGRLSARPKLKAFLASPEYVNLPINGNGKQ
Experimental: Online solid phase extraction (SPE) was performed using the fully automated Spark Holland Symbiosis™ (Emmen, The Netherlands) in eXtraction Liquid Chromatography (XLC) mode. The Symbiosis™ has previously been described in detail (18). HySphere™ C18 HD 7 μm SPE cartridges were used (Spark Holland). Each cartridge was initially conditioned with 2 ml methanol+0.5% formic acid (FA) and then equilibrated with 2 ml water+0.5% FA, both at flow-rates of 4 ml/min. Sample (25 μl) was aspirated and loaded onto the cartridge with 1 ml water+0.5% FA at a flow-rate of 1 ml/min. […] After elution, the right clamp was washed successively with 2 ml water+0.5% FA, 2 ml methanol+0.5% FA and 2 ml water+0.5% FA at 4 ml/min. […] The mobile phase composition was returned to starting conditions over 1 min and maintained during 6 min for column equilibration. The total run time was 27 min. Mass spectrometry was performed using the Thermo® TSQ Quantum Discovery Max in electrospray positive ionization mode (Thermo, US) with the following parameters: capillary voltage=4.0 kV, capillary temperature=300° C., sheath gas pressure=40, auxiliary gas pressure=5.

[3] = test system: Trx1/2 in MDA-MB-231 cells; experiment: Trx redox western blot analysis; type: cell-based, human; conditions: GSH-depleted MDA-MB-231, 100 μM, 6h, increases further at 18h
Experimental: Quantification is obtained directly from the relative intensities of the different bands. Two forms of the redox Western blot have been developed, separating on the basis of differing charge (thiols are modified with a charged alkylating reagent) or mass (thiols are modified with a high-mass alkylating reagent). Redox analysis of the mitochondrial compartment is performed using a redox Western blot analysis of thioredoxin-2 (Trx2). Trx2 is exclusively found in mitochondria, so an analysis of a cell or tissue extract provides specific information on redox in the mitochondria without fractionation. Analysis is performed following derivatization with AMS. Trx2 contains two cysteine residues, and the addition of two molecules of AMS increases the mass by approximately 1000 Da. Oxidized and AMS derivatized forms are separated by non-reducing SDS polyacrylamide gel electrophoresis and detected by immunoblotting.

HCT116 cells [4] = experiment: ROS production and video-microscopy (H2DCF); type: cell-based, human; conditions: HCT116 loaded with H2DCF, 100 μM
Experimental: HCT116 cells pretreated or not for 20h with 1 mM BSO were loaded with 5 μM 2′,7′ dichloroflurescein diacetate (H2DCF). […] H2DCF fluorescence was excited with a LED light source (490 nm) and emitted light was collected at 520-550 nm. For video, H2DCF-loaded cells were washed with HBSS and kept for measurement in 2 μM H2DCF in HBSS.
For quantification the MetaMorph® software was used. ROIs were traced on representative cells and integrated fluorescence intensities were estimated. Values correspond to the average intensities of the ROIs and are expressed as the ratio F/FO, where F is the averaged intensity recorded at a given time and FO corresponds to an averaged intensity recorded on images captured before adding the compounds.

[5] = Phase I clinical trial GBM, safety, DLT and MTD
From the text: It was a single arm, multi dose, dose escalating trial in newly diagnosed GBM patients. The total number of patients was 43, with about 5 patients per cohort. Patients who tolerated radiation (XRT) and temozolomide (TMZ) were recruited. Inclusion criteria included completion of XRT and TMZ without grade 3 or 4 toxicity and labs within acceptable range within 6 weeks of completing XRT. The end points included safety, maximum tolerated dose (MTD), and signal of activity.
Using modified continual reassessment method, MTD was defined for metronomic and standard dose TMZ.

MDA-MB-453 cells = experiment: Apoptosis and necrosis assay (DiOC2(3)/DAPI flow cytometry); type: cell-based, human; conditions: MDA-MB-453 without GSH depletion
Experimental: (§1) Cells were seeded in 6-well tissue culture plates (2.5×10^5 cells/well). MDA-MB-453 and HCT116 cells were first pre-treated or not for 48 h with 1 mM BSO. […] Cell-conditioned culture media, that may contain detached cells, were then collected and attached cells were trypsinized. Cells were combined with their corresponding conditioned media and collected by centrifugation at 1500 rpm for 10 min at 4° C. […] Cell- and DNA-associated fluorescence signals were quantified using a FACS-Aria (BD Biosciences) and data were analyzed with the […] software (BD Biosciences).

HCT116 cells [6] = experiment: as above; type: cell-based, human
Experimental: as §1

ΔSec human TrxR1 = target: T2, ΔSec human TrxR1 (Homo sapiens, UniProt Q16881); experiment: Electron paramagnetic resonance, DEPMPO spin trapping; type: biochemical; conditions: ΔSec-TrxR1, absence of auranofin
T2 construct: purchased Abnova

purified rat liver TrxR = target: T3, purified rat liver TrxR (Rattus norvegicus, UniProt O89049); experiment: In vitro TrxR activity (DTNB reduction assay); type: biochemical; conditions: 100 μM Iniparib, 200 μM NADPH, up to 120 min
T3 construct: Wild type TrxR purified from rat liver was from Sigma-Aldrich Chemicals; purchased Sigma-Aldrich Chemicals; host or cells: rat liver (tissue-purified)
T3 sequence (O89049 whole entry): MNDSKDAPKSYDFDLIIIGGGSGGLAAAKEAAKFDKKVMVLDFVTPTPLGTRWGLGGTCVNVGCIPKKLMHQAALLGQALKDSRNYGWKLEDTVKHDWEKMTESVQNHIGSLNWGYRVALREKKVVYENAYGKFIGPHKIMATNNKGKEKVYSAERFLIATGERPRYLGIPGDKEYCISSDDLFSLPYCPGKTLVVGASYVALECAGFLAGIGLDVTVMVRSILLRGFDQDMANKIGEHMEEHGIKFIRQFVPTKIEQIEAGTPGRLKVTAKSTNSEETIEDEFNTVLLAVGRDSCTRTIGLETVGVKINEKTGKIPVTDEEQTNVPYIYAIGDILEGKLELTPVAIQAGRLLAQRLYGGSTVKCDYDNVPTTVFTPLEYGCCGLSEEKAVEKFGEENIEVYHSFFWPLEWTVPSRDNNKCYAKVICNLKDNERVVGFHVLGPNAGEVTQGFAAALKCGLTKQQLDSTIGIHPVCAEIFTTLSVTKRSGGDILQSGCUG

[7] = test system: JNK, p38MAPK in MDA-MB-453 cells; experiment: Cell death signaling western blots (phospho-JNK, phospho-p38MAPK); conditions: MDA-MB-453, 100 μM
Experimental: as §2, §3, §4

[8] = target: T4, TrxR1 and other protein targets in HCT116 cells (Homo sapiens, UniProt Q16881); conditions: 90-min preincubation of GSH-depleted HCT116 (auranofin 10 μM or Iniparib 100 μM)
T4 sequence (Q16881 1-499 isoform Q16881-5): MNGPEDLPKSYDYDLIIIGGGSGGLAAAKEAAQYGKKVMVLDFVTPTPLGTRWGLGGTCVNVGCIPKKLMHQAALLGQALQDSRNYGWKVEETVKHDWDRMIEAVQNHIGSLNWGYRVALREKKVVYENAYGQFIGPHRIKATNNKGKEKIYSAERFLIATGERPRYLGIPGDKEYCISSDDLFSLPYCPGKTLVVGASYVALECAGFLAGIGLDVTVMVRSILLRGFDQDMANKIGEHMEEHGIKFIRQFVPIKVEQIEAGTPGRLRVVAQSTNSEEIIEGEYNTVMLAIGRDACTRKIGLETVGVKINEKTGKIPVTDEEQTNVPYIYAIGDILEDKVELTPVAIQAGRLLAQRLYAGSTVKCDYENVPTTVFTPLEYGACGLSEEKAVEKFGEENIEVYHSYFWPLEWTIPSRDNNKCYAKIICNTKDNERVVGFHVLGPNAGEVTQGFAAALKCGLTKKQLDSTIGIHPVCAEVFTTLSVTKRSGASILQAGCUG
Experimental: TrxR1 immunoprecipitates (FIG. 17A) and cells extracts (FIG. 17B) were analysed by SDS-PAGE under reducing conditions followed by streptavidin-HRP blot and TrxR1 blot.
Clarified octyl-glucoside lysates (12 mg proteins) were combined with anti-TrxR1 or anti-TrxR2 monoclonal antibody coupled to protein G plus agarose (Santa Cruz Biotechnology) and mixed overnight at 4° C. Beads were recovered by centrifugation for 2 min at 1,000×g and extensively washed in octyl-glucoside lysis buffer. Precipitated complexes were eluted by incubating the beads for 20 min at 60° C. in SDS sample buffer. The amount of immunoprecipitated TrxR1 and TrxR2 was systematically checked by blots anti-TrxR1 and anti-TrxR2, respectively.

NC(=O)c1ccc(I)c([N+](=O)[O-])c1 [Iniparib, 4-iodo-3-nitrobenzamide]
JNK activation, time of occurrence ([1]; GSH-depleted HCT116, 100 μM, persisted until 24 h): 6 h | p38MAPK and JNK phosphorylation ([1]; GSH-depleted HCT116, 7 h or 24 h): activation of both p38MAPK and JNK phosphorylation | Trx oxidation ([1]; GSH-depleted HCT116, 7 h or 24 h, 100 μM Iniparib, 1 μM Auranofin, 100 nM Staurosporin): oligomeric/oxidized form of Trx accumulated | reaction with GSH ([2]; absence of GSTP1): did not react | conversion of Iniparib to Iniparib-GS ([2]; recombinant GSTP1 added): complete conversion | Trx oxidation status [3]: accumulation of oxidized Trx | ROS production (HCT116 cells [4]): induced an increase in ROS production | Phase 2 dose defined ([5]; IV 2×/wk with metronomic TMZ): 8.6 mg/kg | Phase 2 dose defined ([5]; IV 2×/wk with standard TMZ): 8 mg/kg | apoptotic phenotype induction (MDA-MB-453 cells): much slower than in HCT116 cells | treatment time from which apoptotic phenotype clearly detected (HCT116 cells [6]; GSH-depleted HCT116, 100 μM): 6 h | cell death phenotype (HCT116 cells [6]; GSH-depleted HCT116, 9 h, 100 μM): induced both necrotic and late apoptotic related phenotypes | DEPMPO/HOO• adduct signal (ΔSec human TrxR1): increase | DEPMPO/HO• adduct signal (ΔSec human TrxR1): modest increase | TrxR reductase activity (purified rat liver TrxR): time-dependent inhibition of its reductase activity | JNK activation, time of peak [7]: 10 h | TrxR1 labeling with Iniparib-biotin after preincubation [8]: only a partial inhibition
